One data set relates to Clostridioides difficile. Put plainly: Antibacterial activity against Clostridium difficile at 0.5 % measured after 8 mins by broth microdilution analysis. The class given is functional, organism-based. (In broth dilution the organism is exposed to a series of concentrations in liquid medium.)
The next data set deals with Fusarium dimerum. Put plainly: Antifungal activity against Fusarium dimerum EXF-8427 assessed as inhibition of fungal growth at 100 uM measured after 72 hrs. The class given is functional, organism-based.
Another data set concerns Aspergillus versicolor. The experiment in a line: Antifungal activity against Aspergillus versicolor EXF-8692 assessed as inhibition of fungal growth at 100 uM measured after 72 hrs. It counts as functional, organism-based.
Another data set has as its system Aspergillus niger. The experiment in a line: Antifungal activity against Aspergillus niger EXF-10185 assessed as inhibition of fungal growth at 100 uM measured after 72 hrs. It counts as functional, organism-based.
The test system of the next data set is Penicillium chrysogenum. The experiment in a line: Antifungal activity against Penicillium chrysogenum EXF-1818 assessed as inhibition of fungal growth at 100 uM measured after 72 hrs. It counts as functional, organism-based.
The next data set deals with CHO-K1. Put plainly: Cytotoxicity against CHO-K1 cells assessed as reduction in cell viability incubated for 24 hrs by MTT assay. It counts as toxicity, cell-based, Cricetulus griseus. As to conditions: chinese hamster, cho-k1, 24 h. Background: Tetrazolium assays rely on reduction of a dye to a coloured formazan, in cell work by metabolically active cells.
The next data set relates to Human alphaherpesvirus 3. The experiment in a line: Antiviral activity against Varicella zoster-virus assessed as reduction factor at 0.005 % measured for 5 mins by crystal violet staining based microscopic analysis. It counts as functional.

The values below come from ChEMBL document CHEMBL5230106, “The wide-spectrum antimicrobial effect of novel N-alkyl monoquaternary ammonium salts and their mixtures; the QSAR study against bacteria” (Eur J Med Chem, 2020).

SMILES strings stand for the structures. Activity calls are given as the source filed them. No cut-off for these calls is given here.

As to `CCCCCCCCCCCC[N+](C)(C)CCCCCCCC`, the outcome in the data set with Clostridioides difficile, with Fusarium dimerum, in the data set on Aspergillus versicolor, in the data set with Aspergillus niger and in the data set on Penicillium chrysogenum was Active.

For the compound `CCCCCCCCCCCCCC[N+]1(CCO)CCOCC1.[Br-]`, in the data set on CHO-K1, the Activity result is recorded as “Toxic”.

On to `CCCCCCCCCCCCCCCC[N+](C)(C)CCCCCCCC.[Br-]`, for which the “fold change (FC)” value in the data set on Human alphaherpesvirus 3 was 3.83.

As for `CCCCCCCC[N+](C)(CCCCCCCC)Cc1ccccc1.[Br-]`, the “fold change (FC)” value with Human alphaherpesvirus 3 was found to be 3.84.

On to `CCCCCCCCCCCCCCCC[n+]1cccc(OC)c1.[Br-]`, for which the “fold change (FC)” value in the data set on Human alphaherpesvirus 3 is on record as 4.68.

`CCCCCCCCCCCC[N+]1(CCO)CCOCC1.[Br-]`: in the data set with CHO-K1, the Activity entry is on record as “Toxic”. In addition, the result in the data set with Clostridioides difficile was Active.

Regarding `CCCCCCCCCCCCCCCC[N+]1(CCO)CCOCC1.[Br-]`, the Activity result in the data set on CHO-K1 is given as “Toxic”.
